Results reported in patent US20100168468A1, “WRINKLE-PREVENTING AND IMPROVING COMPOSITION” (Kyowa Hakko Kirin Co., Ltd., priority 2005, published 2010).

System: Fibroblasts
Experiment: Production amount of type I collagen by fibroblasts
Assay type: cell-based
Conditions: cultured for two days in DMEM without growth factors; amount without sarcosine set as 100 (FIG. 4)
Procedure: The production of collagen was measured in the following method. Fibroblasts were plated on 24 wells, and were allowed to stand while culturing until the cells fully adhered. Then, the culture liquid (DMEM supplemented with growth factors) was replaced with a medium (DMEM without growth factors) to which the drug (sarcosine) was added to the desired concentration, and cultured for two days. The culture supernatant was removed, and the production amount of type I collagen was determined using the TAKARA's Procollagen type I-Cppeptide EIA KIT. Cell counts were determined by measuring the amount of DNA using Hoechst and then converting it to a cell count. Finally the production amount of collagen was compared as the production amount of collagen per unit cell.

CNCC(=O)O [sarcosine]
production amount of collagen per unit cell: increases with sarcosine addition in dose dependent manner
